The values below come from PubChem BioAssay (NCI).

What all share (experiment): growth of human tumour cells (NCI), 48 h
Assay [1] concerns SK-MEL-28 melanoma.
Assay [2] has as its system NCI-H23 lung.
The subject of assay [3] is BT-549 breast.
Assay [4] concerns NCI-H460 lung.
The subject of assay [5] is HCT-116 colon.
In assay [6] the test system is U251 CNS.
In assay [7] the test system is NCI-H226 lung.
The test system of assay [8] is HOP-62 NSCLC.
The test system of assay [9] is CCRF-CEM leukemia.
The subject of assay [10] is LOX IMVI melanoma.

Where “and” joins values, the source holds several entries; their conditions need not be identical. Equal entries are not always repeated.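 Method: 48-hour compound exposure of cells in 96-well plates, five concentrations, linear interpolation of endpoints. The concentration for 50% growth inhibition is given as GI50. TGI: total growth inhibition.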

For `COc1ccc(Cl)c(Nc2nc3ccccc3nc2NS(=O)(=O)c2cccc(NC(=O)C(C)(C)N)c2)c1`, the GI50 is 7.93 µM and > 10 µM in [1]; 13.2 µM and > 10 µM in assay [2]; 4.87 µM and 4.42 µM in assay [3]; 6.51 µM and 4.52 µM in [4]; 12.8 µM and > 10 µM in assay [5]; 11 µM and > 10 µM in [6]. Further, the GI50 was 15.3 µM and > 10 µM in assay [7]; 4.66 µM and > 10 µM in assay [8]; 12.3 µM and > 10 µM in [9]; 6.52 µM and 4.14 µM in assay [10]. Further, the TGI in [1] is 22.2 µM and > 10 µM; in [2], 29.1 µM and > 10 µM; in [3], 18.4 µM and > 10 µM; in assay [4], 20.8 µM and > 10 µM; in [5], 25.8 µM and > 10 µM; in [6], 24.1 µM and > 10 µM. The TGI is 40.2 µM and > 10 µM in assay [7]; 20 µM and > 10 µM in assay [8]; 31.9 µM and > 10 µM in assay [9]; 20.2 µM and > 10 µM in assay [10].
As to `COc1cc(/C=C/C(=O)c2ccc(F)cc2)ccc1OCCCN1CCN(CC(=O)Nc2ccc(Cl)cc2C(=O)c2ccccc2Cl)CC1`, the GI50 in [1] is 3.68 µM; in assay [2], 17.4 µM; in assay [3], 10.8 µM; in assay [4], 4.47 µM; in [5], 2.23 µM; in assay [6] it was 5.01 µM. Also, the GI50 in assay [7] is 18.4 µM; in assay [8], 15.5 µM; in [9], 2.65 µM; in assay [10] it was 3.97 µM. Moreover, the TGI in assay [1] is 12.6 µM; in assay [2] it was more than 100 µM; in [3], 26.2 µM; in assay [4] it was more than 100 µM; in assay [5] it was 11.1 µM; in assay [6] it was 17.3 µM. Further, the TGI was 37.2 µM in assay [7], 31.9 µM in assay [8], 9.3 µM in assay [9] and 14.6 µM in assay [10].
On to `O=c1c(O)c(-c2ccc(O)c(O)c2)oc2cc(O)cc(O)c12`, for which the GI50 in [1] was 17.9 µM; in assay [2], 9.65 µM; in assay [3] it was 13.3 µM; in assay [4] it was 6.73 µM; in assay [5] it was 16.9 µM; in [6] it was 8.68 µM. Moreover, the GI50 is 16.3 µM in assay [7], 15.6 µM in assay [8], 10.7 µM in assay [9] and 11.4 µM in [10]. The TGI in assay [1] is more than 100 µM; in [2], 50 µM; in assay [3], 77.7 µM; in [4] it was 66.9 µM and > 100 µM; in assay [5], more than 100 µM; in [6] it was more than 100 µM. Moreover, the TGI was 68.5 µM in assay [7]; more than 100 µM in assay [8]; > 100 µM and 87.7 µM in assay [9]; > 84.1 µM and 35.9 µM in assay [10].
`COC(=N)c1c(N)[n+]([O-])c2ccc(F)cc2[n+]1[O-]`: the GI50 in [1] is more than 100 µM; in assay [2] it was more than 100 µM; in [3] it was more than 100 µM; in assay [4], 58.1 µM; in assay [5], more than 100 µM; in assay [6], more than 100 µM. In addition, the GI50 in assay [7], in assay [8], in [9] and in assay [10] was more than 100 µM throughout. Also, the TGI in assay [1], in assay [2], in assay [3], in assay [4], in [5] and in [6] was more than 100 µM in each case. Besides, the TGI in [7], in [8], in [9] and in assay [10] was more than 100 µM in each case.
Consider `CN1CCc2[nH]nc(-c3n[nH]c4c3CN(C)CC4)c2C1`, for which the TGI in assay [1], in assay [2], in assay [3], in [4], in [5] and in assay [6] was more than 100 µM throughout. The TGI in assay [7], in assay [8], in assay [9] and in assay [10] was more than 100 µM each time.
Regarding `Nc1c(C(=O)c2cccc(-c3cccnc3)c2)cnn1-c1ccc(F)cc1F`, the GI50 in assay [1] is 10.1 µM; in [2] it was 4.41 µM; in [3] it was 5.91 µM; in [4] it was 1.52 µM; in assay [5], 2.87 µM; in assay [6] it was 6.79 µM. In addition, the GI50 is 6.96 µM in assay [7], 5.49 µM in assay [8], 10.2 µM in assay [9] and 5.76 µM in assay [10]. For the same molecule, the TGI in assay [1], in [2], in assay [3], in assay [4], in assay [5] and in [6] was more than 25 µM throughout. Further, the TGI in assay [7], in assay [8], in [9] and in assay [10] was more than 25 µM in each case.
For `COc1ccc(CC(=O)c2ccc(O)cc2O)cc1`, the GI50 is more than 100 µM in assay [1]; 63.5 µM in [2]; 66.2 µM in [3]; 56.1 µM in [4]; more than 100 µM in [5]; more than 100 µM in assay [6]. Further, the GI50 in assay [7] is more than 100 µM; in assay [8], more than 100 µM; in assay [9] it was 49.4 µM; in assay [10], more than 100 µM. In addition, the TGI in assay [1], in assay [2], in [3], in assay [4], in assay [5] and in [6] was more than 100 µM in each case. The TGI in [7], in assay [8], in assay [9] and in assay [10] was more than 100 µM each time.
On to `COc1ccc(N(/C=C/C(=O)C(F)(F)F)CC(=O)c2ccc(F)cc2)cc1`, for which the GI50 is 41.1 µM in [1]; 30.1 µM in assay [2]; 30.4 µM in [3]; 23.5 µM in [4]; 14.7 µM in assay [5]; 13.1 µM in [6]. In addition, the GI50 in assay [7] was 12.1 µM; in assay [8], 20 µM; in [9], 19.7 µM; in assay [10], 16.4 µM. Further, the TGI in [1] is more than 100 µM; in assay [2], 84.9 µM; in [3], more than 100 µM; in [4] it was 50 µM; in assay [5], 27.9 µM; in assay [6], 28.3 µM. Also, the TGI in [7] was determined as 33.3 µM; in assay [8], 44.9 µM; in [9], 95.1 µM; in assay [10] it was 39.1 µM.
`Cc1cn2c(/C=C3/C(=O)Nc4ccc(O)cc43)c(C)nc2s1`: the GI50 was 8.44 µM in [1]; 7.12 µM in assay [2]; 5.82 µM in assay [3]; 2.56 µM in assay [4]; 1.22 µM in assay [5]; 3.06 µM in assay [6]. In addition, the GI50 is 4.91 µM in assay [7], 2.89 µM in assay [8], 1.25 µM in [9] and 4.46 µM in [10]. Moreover, the TGI in [1] was more than 100 µM; in assay [2] it was more than 68.9 µM; in assay [3] it was 57.7 µM; in assay [4], 14.5 µM; in assay [5], more than 45.5 µM; in assay [6], 35.7 µM. In addition, the TGI in [7] was 39.8 µM; in [8] it was more than 68 µM; in [10], 99.6 µM.
Turning to `N#CSCc1ccc(Cl)c(CSC#N)c1`, the GI50 was 3.58 µM in assay [1]; 0.913 µM in assay [2]; 0.303 µM in [3]; 0.807 µM in assay [4]; 0.0379 µM in [5]; 9.12 µM in assay [6]. Besides, the GI50 in assay [7] was 3.11 µM; in [8], 7.25 µM; in [9], 0.103 µM; in assay [10] it was 0.151 µM. In addition, the TGI was 22.4 µM in assay [1]; 44.5 µM in assay [2]; 11.2 µM in assay [3]; 12.6 µM in assay [4]; 14.8 µM in assay [5]; 28.4 µM in assay [6]. For the same molecule, the TGI in assay [7] was 10.3 µM; in assay [8] it was more than 66.9 µM; in assay [9], 23.6 µM; in assay [10] it was 13.6 µM.
Regarding `O=S(=O)(c1cccc2c(I)cccc12)N1CCCNCC1`, the GI50 was 21.6 µM in assay [1]; 17 µM in [2]; 16.7 µM in [3]; 33.2 µM in assay [4]; 15.4 µM in assay [5]; 19.6 µM in [6]. Also, the GI50 in assay [7] was 17.8 µM; in assay [8], 16.5 µM; in assay [9], 14.1 µM; in [10] it was 18.3 µM. For the same molecule, the TGI in assay [1] was 44.2 µM; in [2], 34 µM; in assay [3] it was 43.3 µM; in assay [4] it was more than 100 µM; in [5], 32.6 µM; in [6], 39.1 µM. In addition, the TGI in [7] stood at 34.8 µM; in assay [8], 34.4 µM; in assay [9] it was 32.2 µM; in assay [10], 36.6 µM.
In the case of `Nc1c(C(=O)c2cccc(C#CCO)c2)cnn1-c1ccc(F)cc1`, the GI50 in assay [1], in assay [2], in assay [3], in assay [4], in assay [5] and in [6] was more than 25 µM throughout. Moreover, the GI50 in [7], in assay [8], in assay [9] and in [10] was more than 25 µM each time. Moreover, the TGI in assay [1], in [2], in assay [3], in assay [4], in [5] and in assay [6] was more than 25 µM in each case. Also, the TGI in [7], in [8], in assay [9] and in [10] was more than 25 µM in each case.
On to `CC(=O)[O][Sn]([CH2]c1ccccc1)([CH2]c1ccccc1)[CH2]c1ccccc1`, for which the GI50 in assay [1] is more than 5.6 µM; in assay [2] it was more than 5.98 µM; in [3], more than 10 µM; in assay [4], more than 10 µM; in assay [5] it was more than 9.18 µM; in assay [6] it was more than 10 µM. Also, the GI50 in [7] was more than 10 µM; in assay [8] it was more than 5.55 µM; in assay [9], more than 4.58 µM; in assay [10], 3.79 µM. Also, the TGI is more than 6.79 µM in assay [1]; more than 7.83 µM in assay [2]; more than 10 µM in assay [3]; more than 10 µM in [4]; more than 10 µM in [5]; more than 10 µM in [6]. Further, the TGI in assay [7] is more than 10 µM; in assay [8], more than 6.75 µM; in [9], more than 6.27 µM; in [10], more than 4.64 µM.
Consider `NC(=O)Nc1cc(-c2cccc(F)c2)sc1C(=O)N[C@H]1CCCNC1`, for which the GI50 in assay [1] was 2.95 µM and 3.53 µM; in assay [2], 0.038 µM and 0.193 µM; in [3] it was 0.15 µM and 0.334 µM; in [4], 0.207 µM and 0.467 µM; in assay [5] it was 0.327 µM and 0.428 µM; in assay [6], 0.354 µM and 0.526 µM. The GI50 in [7] was 1.09 µM and 0.57 µM; in [8] it was 0.0876 µM and 0.292 µM; in [9], 0.0414 µM and 0.124 µM; in assay [10], 0.0603 µM and 0.199 µM. Further, the TGI in assay [1] was > 10 µM and 16.9 µM; in assay [2] it was 1.52 µM and 2.63 µM; in [3] it was 2.05 µM and 1.41 µM; in assay [4] it was 3.32 µM and 4.22 µM; in assay [5], 6.14 µM and 2.85 µM; in [6], > 4.59 µM and 2.53 µM. The TGI in assay [7] was 8.69 µM and 2.9 µM; in assay [8] it was 1.67 µM and 2.82 µM; in assay [9], > 2.96 µM and 3 µM; in assay [10], 1.04 µM and 1.12 µM.
Regarding `O=[N+]([O-])c1cc(Cl)cnc1Br`, the TGI turned out to be 10.2 µM in assay [1]; 24.2 µM in [2]; 11.3 µM in [3]; 15.2 µM in assay [4]; 24 µM in assay [5]; 5.32 µM in assay [6]. Besides, the TGI in assay [7] was found to be 6.62 µM; in [8] it was 35.1 µM; in [9] it was 19.6 µM; in assay [10], 3.16 µM.
